In BindingDB's records for patent US12226405 (Novartis, 2025):

Molecular target: Endothelial PAS domain-containing protein 1 (Homo sapiens, UniProt Q99814)
Test: Scintillation Proximal Assay (SPA)
Method: Compounds (tested using a 14-point dose response with 3-fold compound dilutions from 100 μM to 60 pM) were pre-incubated for 30 min with HIF2α PAS-B domain (236-350, biotinylated on the N-terminus), before addition of the radio-ligand. […] Duplicates were made using 2 different plates, and mean IC50 values were determined using the Helios system based on the following equation: % inhibition=[(high control−sample)/(high control−low control)]×100. The IC50 values in the Tabulated HIF2α activities are the average from 1 to 10 independent experiments.

Sequence of Endothelial PAS domain-containing protein 1 (Q99814 whole entry, the tested form may be a part): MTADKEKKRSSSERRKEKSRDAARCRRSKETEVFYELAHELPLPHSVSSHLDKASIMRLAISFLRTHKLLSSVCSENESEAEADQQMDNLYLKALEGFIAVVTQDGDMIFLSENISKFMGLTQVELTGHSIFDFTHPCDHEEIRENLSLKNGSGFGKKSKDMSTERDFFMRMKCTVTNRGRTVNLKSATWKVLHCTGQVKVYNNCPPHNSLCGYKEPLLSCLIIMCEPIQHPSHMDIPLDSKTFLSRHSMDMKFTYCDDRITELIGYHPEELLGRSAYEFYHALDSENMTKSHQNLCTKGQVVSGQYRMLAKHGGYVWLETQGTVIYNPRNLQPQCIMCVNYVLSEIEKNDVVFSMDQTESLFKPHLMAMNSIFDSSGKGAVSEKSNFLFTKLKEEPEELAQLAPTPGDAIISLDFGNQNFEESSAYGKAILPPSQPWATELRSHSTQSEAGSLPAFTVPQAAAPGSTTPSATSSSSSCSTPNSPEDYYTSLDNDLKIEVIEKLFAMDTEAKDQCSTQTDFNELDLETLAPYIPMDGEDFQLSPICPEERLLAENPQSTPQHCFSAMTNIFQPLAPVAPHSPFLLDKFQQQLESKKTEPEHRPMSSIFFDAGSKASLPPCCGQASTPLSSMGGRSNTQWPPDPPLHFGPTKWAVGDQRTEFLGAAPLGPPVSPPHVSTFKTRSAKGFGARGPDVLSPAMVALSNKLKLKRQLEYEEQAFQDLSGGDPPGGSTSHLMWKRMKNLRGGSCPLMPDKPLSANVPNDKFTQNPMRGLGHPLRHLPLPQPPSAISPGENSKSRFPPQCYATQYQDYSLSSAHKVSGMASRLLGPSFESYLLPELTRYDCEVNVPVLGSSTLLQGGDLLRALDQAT

FC(F)OC1=CC(C(F)(F)F)=CN2C[C@@]3(CCc4cc(C(F)(F)F)ccc43)N=C12 [US12226405, Example 6]
IC50: 8 nM
